Converted amounts (≈) assume the structure as drawn. Marks after values point to notes of the source that are not given here.
Assays:
[1] = system: C. parapsilosis 425; assay: Checkerboard chemosensitisation to fluconazole; type: cell-based; settings: KN20 0-80 μM and FCZ 32 μg/ml tested, no chemosensitisation
Protocol: Checkerboard drug susceptibility assays were used to measure the chemosensitisation of cells to fluconazole by test compounds such as Pdr5p inhibitors. […] Cell inocula, growth conditions and the optical determination of growth were identical to standard liquid MIC determinations. The assays were conducted in 6 by 6 well arrays centred in a 96 well microtitre plate using buffered CSM-URA medium at pH 7.0, with fluconazole and/or peptide included in each well at the indicated concentration.

[2] = system: AD1-8u^− derivative transformed with C. glabrata PDH1; assay: MIC, PDH1 construct; type: cell-based, S. cerevisiae; settings: Nakaseomyces glabratus; PDH1 hyper-expressed
Protocol: The MICs of antifungal agents for S. cerevisiae cells were determined by a microdilution test based on the macrodilution reference method of the National Committee for Clinical Laboratory Standards. Cells (10 μl cell suspension, 2×10^5 cells/ml) were inoculated into 90 μl CSM-URA, buffered with 10 mM 2-(N-morpholino)ethanesulfonic acid (MES) and 18 mM N-2-hydroxyethylpiperazine-N′-2-ethanesulfonic acid (HEPES), pH 7.0 and containing 0.67% (w/v) yeast nitrogen base (YNB) in microtitre plate wells. For the uracil-requiring strain AD1-8u^− the medium was supplemented with 0.02% (w/v) uridine. The wells contained, in […], doubling dilutions of antifungal agents (final concentrations: fluconazole, 40-0.078 μg/ml; itraconazole and ketoconazole, 8-0.016 μg/ml). The microtitre plates were incubated at 30° C. for 48 h with shaking and then the growth of cells in individual wells (OD590) was measured with a microplate reader (EL 340, Bio-Tek, Winooski, Vt.). The MIC80 was the lowest concentration of drug that inhibited growth yield by at least 80% compared to a no-drug control.

Compound	Fold-sensitisation by KN20 (For FCZ MIC) [1]	MIC [2] [µg/mL]
D-octapeptide NH2-Asn-Trp-Trp-Lys-Val-Arg-Arg-Arg-CONH2 with a single 4-methoxy-2,3,6-trimethylbenzenesulphonyl (Mtr) substituent on one tryptophan sidechain; Pdr5p inhibitor [KN20]	1^b fold	
OC(Cn1cncn1)(Cn1cncn1)c1ccc(F)cc1F [fluconazole]		200 (≈ 653 µM)

From patent US8728797B2, “Yeast membrane protein expression system and its application in drug screening” (priority 2001, dated 2014)
